The record followed here is publication PMC3747139 (PLoS ONE, 2013).

One data set deals with A549. Description: Cell count assay (trypan blue). The note with it: for Number of viable cells after 24 h of ligand treatment: A549, 24 h; for Number of viable cells after 48 h of ligand treatment: A549, 48 h. It is filed as cell-based, human. How it is done: (§1) Normal and tumor cell lines were seeded at 20000–40000 cells/cm^2 with 0.2 mL/cm^2 media and incubated for 48 h at 37°C, 6% CO2, 95% relative humidity. […] After 24 h and 48 h of incubation, cells were washed with 300 µl PBS or 0.02% EDTA, trypsinized, followed by harvesting at 37°C. 200 µl cell suspension was transferred into 1.5 ml microcentrifuge tube. To the cell suspension, 300 µl PBS followed by 500 µl of 0.4% trypan blue solution was added. To get the homogenised solution, the microcentrifuge tube was gently tapped for 5 min, 20 µl of cell suspension was loaded in to a chamber of the haemocytometer.

The next data set deals with MCF-7. The experiment in a line: Cell count assay (trypan blue). Type of data set: cell-based, human. The settings on record: for Number of viable cells after 24 h of ligand treatment: MCF-7, 24 h; for Number of viable cells after 48 h of ligand treatment: MCF-7, 48 h. How it is done: as §1
For another data set, the system named is B16F10. Description: Cell count assay (trypan blue). It is filed as cell-based, human. The settings on record: for Number of viable cells after 24 h of ligand treatment: B16F10, 24 h; for Number of viable cells after 48 h of ligand treatment: B16F10, 48 h. How it is done: as §1
The nature of data set [1]: Cell count assay (trypan blue). Type of data set: cell-based. Also on record: concentration or dose not given beside the values. The note with it: human; for viability at 24 h: read-out: Number of viable cells after 24 h of ligand treatment; for viability at 48 h: read-out: Number of viable cells after 48 h of ligand treatment. How it is done:
as §1

The next data set relates to HQF DNA [d(T2AG3)4]. Description: SYBR Green melting study with HQF DNA. Type of data set: binding, human. The note with it: melting temperature of HQF DNA (5 µM) in presence of 1 µM ligand. How it is done: When quadruplex DNA melts to form ssDNA structure, SG fluorescence intensity gradually reduces as SG has no binding to ssDNA. Each time, 5 µM of HQF DNA [d(T2AG3)4)], 5 µM of dsDNA (prepared by mixing equal concentration of poly-dA-dT and poly-dT-dA), 5 µM ssDNA ( poly dT alone) and 1 µM of each ligand was incubated at 4°C for 16 h, and used for melting studies. […] Affinity, stoichiometry and thermodynamic parameters for quadruplex-ligand complex were studied with 60 µM of ligand and 10 µM of HQF DNA using Microcal VP-ITC (Northampton, MA, USA). Ligand addition to G-quadruplex DNA was made every 180 seconds. Titration experiments were performed thrice and blank correction was made each time to minimize error.

The mark [2] stands for this setting: CRL-2115 cells (normal cell line), CRL-2115, 24 h.
Setting [3] is: CRL-2115 cells (normal cell line), CRL-2115, 48 h.
The mark [4] stands for this setting: CRL-2120 cells (normal cell line), CRL-2120, 24 h.
Setting [5] is: CRL-2120 cells (normal cell line), CRL-2120, 48 h.
Setting [6] is: NCM-460 cells (normal cell line), NCM-460, 24 h.
The mark [7] stands for this setting: NCM-460 cells (normal cell line), NCM-460, 48 h.

Structures are written as SMILES. Like-named read-outs stand apart in the source and are kept apart here. Marks after values point to notes of the source that are not given here.

On to `CCOC(=O)c1nnn(Cc2ccccc2)c1-c1cccc(O)c1` [Ligand L11, Ethyl 1-benzyl-5-(3-hydroxyphenyl)-1H-1,2,3-triazole-4-carboxylate], for which the “Number of viable cells after 24 h of ligand treatment” value with A549, with MCF-7 and in the data set with B16F10 was “+ (Viable cells in the range of 80%–90%)” each time. Also, the “Number of viable cells after 48 h of ligand treatment” value with A549, in the data set with MCF-7 and with B16F10 was “++ (Viable cells in the range of 50%–60%)” throughout. Also, the viability at 24 h in data set [1] (setting [2]), in data set [1] (setting [4]) and in data set [1] (setting [6]) was 80 to 90% each time. The viability at 48 h in data set [1] (setting [3]), in data set [1] (setting [5]) and in data set [1] (setting [7]) was 80 to 90% in each case. For the same compound, the Tm with HQF DNA [d(T2AG3)4] was 28 ^o C.
Consider `c1ccc(Cn2nnc(-c3ccccc3)c2-c2ccccc2)cc1` [Ligand L4, 1-Benzyl-4,5-diphenyl-1H-1,2,3-triazole], for which the entries for the “Number of viable cells after 24 h of ligand treatment” value in the data set with A549, in the data set on MCF-7 and with B16F10 were “+ (Viable cells in the range of 80%–90%)”, “++/++ (Viable cells in the range of 50%–60%)” and “++/++ (Viable cells in the range of 50%–60%)”, respectively. The “Number of viable cells after 48 h of ligand treatment” value is listed as “++ (Viable cells in the range of 50%–60%)” in the data set on A549, “++/++ (Viable cells in the range of 50%–60%)” with MCF-7 and “++/++ (Viable cells in the range of 50%–60%)” with B16F10. The viability at 24 h in data set [1] (setting [2]), in data set [1] (setting [4]) and in data set [1] (setting [6]) was 80 to 90% in each case. In addition, the viability at 48 h in data set [1] (setting [3]) lay in the range of 50 to 60%; in data set [1] (setting [5]) it was 80 to 90%; in data set [1] (setting [7]), 50 to 60%. Moreover, the Tm in the data set on HQF DNA [d(T2AG3)4] is 32 ^o C.
`CCCCc1nnn(Cc2ccccc2)c1/C=C/c1ccccc1` [Ligand L5, (E)-1-Benzyl-4-butyl-5-styryl-1H-1,2,3-triazole]: the results for the “Number of viable cells after 24 h of ligand treatment” value in the data set with A549, in the data set with MCF-7 and in the data set on B16F10 were “+ (Viable cells in the range of 80%–90%)”, “++/++ (Viable cells in the range of 50%–60%)” and “++/++ (Viable cells in the range of 50%–60%)”, respectively. Besides, the “Number of viable cells after 48 h of ligand treatment” value in the data set on A549 was “++ (Viable cells in the range of 50%–60%)”; in the data set on MCF-7, “++/++ (Viable cells in the range of 50%–60%)”; in the data set with B16F10 it was “++/++ (Viable cells in the range of 50%–60%)”. Further, the viability at 24 h in data set [1] (setting [2]), in data set [1] (setting [4]) and in data set [1] (setting [6]) was 80 to 90% each time. The viability at 48 h in data set [1] (setting [3]), in data set [1] (setting [5]) and in data set [1] (setting [7]) was 50 to 60% throughout. Also, the Tm with HQF DNA [d(T2AG3)4] is 33 ^o C.
